Reference: patent US9302988B2, “Fluoromethyl-substituted pyrrole carboxamides” (GRÜNENTHAL GMBH, priority 2012, dated 2016)

The compounds below were run against T1, Human CaV2.2 channels (Homo sapiens, UniProt Q00975) (assay: Fluorescent assay for CaV2.2 channels using potassium depolarization to induce channel opening (FLIPR, Fluo-4)). Details: 3 μM test compound, 30 mM KCl, HEK293 cells stably expressing human CaV2.2; read-out: %-Inhib (CaV2.2) @3 μM @30 mM KCl.
T1 construct: expressed in transfected cells
T1 sequence (Q00975 whole entry): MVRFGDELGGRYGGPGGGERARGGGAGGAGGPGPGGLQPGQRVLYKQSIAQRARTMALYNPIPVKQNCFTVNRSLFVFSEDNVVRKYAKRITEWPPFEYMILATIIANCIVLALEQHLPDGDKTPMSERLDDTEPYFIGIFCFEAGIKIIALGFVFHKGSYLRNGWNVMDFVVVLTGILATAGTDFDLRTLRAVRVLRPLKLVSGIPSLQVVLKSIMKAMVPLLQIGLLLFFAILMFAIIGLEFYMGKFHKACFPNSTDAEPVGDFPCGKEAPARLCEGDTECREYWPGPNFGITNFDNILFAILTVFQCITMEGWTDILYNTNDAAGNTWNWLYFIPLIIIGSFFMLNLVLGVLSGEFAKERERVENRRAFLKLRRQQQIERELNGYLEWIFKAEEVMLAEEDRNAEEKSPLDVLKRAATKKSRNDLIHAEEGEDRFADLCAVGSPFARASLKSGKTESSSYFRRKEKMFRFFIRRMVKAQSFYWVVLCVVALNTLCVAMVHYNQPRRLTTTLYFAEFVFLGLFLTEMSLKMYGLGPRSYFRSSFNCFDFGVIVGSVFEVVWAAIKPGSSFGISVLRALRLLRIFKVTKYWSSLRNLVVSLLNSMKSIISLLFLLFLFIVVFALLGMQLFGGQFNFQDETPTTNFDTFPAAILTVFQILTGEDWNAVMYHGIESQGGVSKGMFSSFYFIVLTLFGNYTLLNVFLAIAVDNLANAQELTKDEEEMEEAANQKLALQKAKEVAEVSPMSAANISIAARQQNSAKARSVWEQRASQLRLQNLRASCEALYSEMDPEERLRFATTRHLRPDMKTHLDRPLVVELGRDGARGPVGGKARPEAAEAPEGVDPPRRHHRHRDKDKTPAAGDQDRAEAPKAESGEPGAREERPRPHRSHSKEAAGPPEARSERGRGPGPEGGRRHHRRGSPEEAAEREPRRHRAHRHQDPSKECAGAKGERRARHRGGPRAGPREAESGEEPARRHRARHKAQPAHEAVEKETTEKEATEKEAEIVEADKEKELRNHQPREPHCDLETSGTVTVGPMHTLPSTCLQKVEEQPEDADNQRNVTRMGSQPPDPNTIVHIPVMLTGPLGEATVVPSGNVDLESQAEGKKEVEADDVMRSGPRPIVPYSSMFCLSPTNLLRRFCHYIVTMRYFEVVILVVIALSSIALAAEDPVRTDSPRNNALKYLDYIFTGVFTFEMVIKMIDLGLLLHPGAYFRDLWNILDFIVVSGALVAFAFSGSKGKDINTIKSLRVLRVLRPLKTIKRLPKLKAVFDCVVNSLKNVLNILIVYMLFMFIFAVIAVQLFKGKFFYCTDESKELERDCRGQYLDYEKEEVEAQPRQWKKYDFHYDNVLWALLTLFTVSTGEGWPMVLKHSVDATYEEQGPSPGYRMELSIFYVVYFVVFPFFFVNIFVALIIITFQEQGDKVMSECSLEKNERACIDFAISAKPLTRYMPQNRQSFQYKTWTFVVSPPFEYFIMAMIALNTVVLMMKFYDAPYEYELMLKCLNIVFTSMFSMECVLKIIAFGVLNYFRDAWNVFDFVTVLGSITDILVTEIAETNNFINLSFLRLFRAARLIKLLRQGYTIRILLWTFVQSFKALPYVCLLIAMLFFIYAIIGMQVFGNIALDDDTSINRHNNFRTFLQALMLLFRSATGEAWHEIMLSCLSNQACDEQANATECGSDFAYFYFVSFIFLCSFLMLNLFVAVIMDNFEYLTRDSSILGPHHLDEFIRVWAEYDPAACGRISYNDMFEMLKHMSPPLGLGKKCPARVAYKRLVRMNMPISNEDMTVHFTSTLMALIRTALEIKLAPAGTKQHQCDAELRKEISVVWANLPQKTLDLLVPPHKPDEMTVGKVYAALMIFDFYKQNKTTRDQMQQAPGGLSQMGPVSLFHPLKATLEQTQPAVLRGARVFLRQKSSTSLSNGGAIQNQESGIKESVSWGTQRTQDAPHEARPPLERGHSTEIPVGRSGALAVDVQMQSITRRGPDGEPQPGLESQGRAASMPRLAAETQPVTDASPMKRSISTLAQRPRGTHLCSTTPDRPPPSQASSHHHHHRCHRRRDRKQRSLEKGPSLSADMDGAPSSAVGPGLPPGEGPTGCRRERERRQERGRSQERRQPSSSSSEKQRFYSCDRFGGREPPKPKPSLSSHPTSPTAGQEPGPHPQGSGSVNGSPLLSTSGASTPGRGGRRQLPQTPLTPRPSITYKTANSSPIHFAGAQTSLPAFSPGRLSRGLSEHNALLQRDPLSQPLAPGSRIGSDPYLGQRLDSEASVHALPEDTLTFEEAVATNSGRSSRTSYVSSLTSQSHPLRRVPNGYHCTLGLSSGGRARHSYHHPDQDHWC
T1 sequence (P54289 25-1103, further chain): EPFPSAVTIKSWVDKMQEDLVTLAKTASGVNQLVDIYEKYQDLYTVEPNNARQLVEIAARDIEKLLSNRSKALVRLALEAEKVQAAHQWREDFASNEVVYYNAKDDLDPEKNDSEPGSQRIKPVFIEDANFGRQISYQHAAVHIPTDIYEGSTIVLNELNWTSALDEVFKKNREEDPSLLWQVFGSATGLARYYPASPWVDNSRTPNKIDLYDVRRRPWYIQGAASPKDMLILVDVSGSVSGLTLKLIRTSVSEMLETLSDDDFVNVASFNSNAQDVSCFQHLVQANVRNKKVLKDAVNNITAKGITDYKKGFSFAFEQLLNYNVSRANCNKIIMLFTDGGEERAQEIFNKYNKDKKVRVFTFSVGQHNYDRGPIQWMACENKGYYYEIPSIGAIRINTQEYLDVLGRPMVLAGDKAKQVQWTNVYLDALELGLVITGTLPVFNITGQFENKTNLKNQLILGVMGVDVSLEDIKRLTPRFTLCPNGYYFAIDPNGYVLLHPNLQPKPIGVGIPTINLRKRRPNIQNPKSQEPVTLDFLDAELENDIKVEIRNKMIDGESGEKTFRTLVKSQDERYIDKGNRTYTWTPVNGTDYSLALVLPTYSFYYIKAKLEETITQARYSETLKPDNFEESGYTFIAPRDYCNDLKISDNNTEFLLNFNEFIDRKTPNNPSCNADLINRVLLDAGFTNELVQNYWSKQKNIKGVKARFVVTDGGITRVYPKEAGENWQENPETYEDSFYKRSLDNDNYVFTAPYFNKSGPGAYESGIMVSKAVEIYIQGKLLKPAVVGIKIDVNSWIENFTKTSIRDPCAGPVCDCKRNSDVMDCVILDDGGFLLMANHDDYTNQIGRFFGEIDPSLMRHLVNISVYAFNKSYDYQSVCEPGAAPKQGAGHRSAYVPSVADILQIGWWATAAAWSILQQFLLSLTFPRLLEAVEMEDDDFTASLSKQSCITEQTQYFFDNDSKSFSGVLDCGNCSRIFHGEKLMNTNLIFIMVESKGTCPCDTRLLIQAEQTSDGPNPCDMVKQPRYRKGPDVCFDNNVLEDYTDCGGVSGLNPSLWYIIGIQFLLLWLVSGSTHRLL
T1 sequence (P54284 whole entry, further chain): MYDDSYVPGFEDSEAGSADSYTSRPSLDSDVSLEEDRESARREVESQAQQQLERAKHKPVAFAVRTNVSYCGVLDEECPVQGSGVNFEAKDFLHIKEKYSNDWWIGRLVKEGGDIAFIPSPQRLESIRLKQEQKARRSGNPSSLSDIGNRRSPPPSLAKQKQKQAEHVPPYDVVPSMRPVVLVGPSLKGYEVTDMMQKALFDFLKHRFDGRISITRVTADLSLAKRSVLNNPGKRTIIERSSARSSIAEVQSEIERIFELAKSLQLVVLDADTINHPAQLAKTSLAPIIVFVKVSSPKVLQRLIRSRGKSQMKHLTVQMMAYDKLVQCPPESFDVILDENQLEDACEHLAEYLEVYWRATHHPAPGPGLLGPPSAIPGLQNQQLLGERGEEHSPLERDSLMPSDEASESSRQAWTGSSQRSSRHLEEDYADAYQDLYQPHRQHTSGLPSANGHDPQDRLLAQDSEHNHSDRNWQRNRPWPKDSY
Assay type: cell-based
Text: In the process, the Ca^2+ influx is quantified in the FLIPR assay with the aid of a Ca^2+-sensitive dye (type Fluo-4, Molecular Probes Europe BV, Leiden, the Netherlands) in a fluorescent imaging plate reader (FLIPR 3, Molecular Devices, Sunnyvale, USA), as described hereinafter.
2.1 Fluorescent Assay for CaV2.2 Channels Using Potassium Depolarization to Induce Channel Opening
Human CaV2.2 channels were stably expressed in HEK293 cells together with alpha2-delta and beta subunits of voltage gated calcium channels. In addition, an inwardly rectifying potassium channel (Kir2.3) was stably expressed in these cells to augment control of the cell membrane potential by the concentration of extracellular potassium ions. Raise of the extracellular potassium concentration leads to depolarization of the membrane potential and thus regulates the voltage dependent state of CaV2.2 channels. For preparation, cells were seeded in black poly-D-lysine coated 96-well plates (Becton Dickinson, Biocoat 4640) in 100 μl medium [500 ml DMEM/F-12 plus Glutamax (Invitrogen 31331-093) plus 5.5 ml MEM NEAA 100× (Invitrogen 11140-035) plus 50 ml FBS decomplemented (Invitrogen 10270-106) plus 4.4 ml Geneticin (Invitrogen 10131-027) plus 1.1 ml Hygromycin B (Invitrogen 10687-010) plus 68.75 μl Puromycin (Clontech, 631306)] at a cell density of 45.000 cells per well.
Plates were incubated at 37° C. (5% CO2) for 20 to 23 hours. On the day of experiment medium was discarded and cells were loaded with Fluo 4 by addition of 100 μl of basic assay buffer (10 mM HEPES, 30 mM KCl, 120 mM NaCl, 0.8 mM CaCl2, 1.7 mM MgCl2, 10 mM Glucose, 0.1% BSA. pH 7.4) containing 2 μM Fluo 4 (Molecular Probes; F-14201), 0.01% pluronic acid (Molecular Probes; P-6866) and 2.5 mM probenecid (Molecular Probes; P36400). Cells were incubated in the dark at 25° C. for 60 min. Then the dye containing buffer was discarded and 100 μl basic assay buffer was added. Subsequently cells were incubated in the dark at 25° C. for 15 min. 25 μl of basic assay buffer with or without test compound were added and cells were incubated again in the dark at 25° C. for 15 min. Fluorescence intensity was measured on a FLIPR 3 instrument (Molecular Devices Corp., Sunnyvale, Calif.) with excitation at 480 nm and emission at 535 nm. After continuously reading fluorescence for 30 sec, 50 μl of basic assay buffer containing 210 mM KCl (NaCl omitted) were added for depolarization. Peak fluorescent signal intensity was determined and the amplitude of the peak signal, normalized to base line, was used to measure channel inhibition by test compounds.
`CC(=O)NCCN(C)C(=O)c1c(-c2ccc(Cl)cc2)c(C)c(C(F)(F)F)n1Cc1ccccc1` [SC-37, N-(2-Acetylamino-ethyl)-1-benzyl-3-(4-chlorophenyl)-N,4-dimethyl-5-(trifluoromethyl)-1H-pyrrole-2-carboxylic acid amide] was tested, and the inhibition at 3 µM was > 95%.
In the case of `Cc1c(-c2ccc(Cl)cc2)c(C(=O)N(C)CCNS(C)(=O)=O)n(Cc2ccccc2)c1C(F)(F)F` [SC-38, 1-Benzyl-3-(4-chlorophenyl)-N-[2-(methanesulfonamido)-ethyl]-N,4-dimethyl-5-(trifluoromethyl)-1H-pyrrole-2-carboxylic acid amide], the inhibition at 3 µM is reported as > 95%.
In the case of `Cc1c(-c2ccc(Cl)cc2)c(C(=O)N(C)C2CCN(C)CC2)n(Cc2ccccc2)c1C(F)(F)F` [SC-39, 1-Benzyl-3-(4-chlorophenyl)-N,4-dimethyl-N-(1-methyl-piperidin-4-yl)-5-(trifluoromethyl)-1H-pyrrole-2-carboxylic acid amide], the inhibition at 3 µM is reported as > 95%.
For `Cc1c(-c2ccc(Cl)cc2)c(C(=O)N2CCOC(C)(C)C2)n(Cc2ccccc2)c1C(F)(F)F` [SC-40, [1-Benzyl-3-(4-chlorophenyl)-4-methyl-5-(trifluoromethyl)-1H-pyrrol-2-yl]-(2,2-dimethyl-morpholin-4-yl)-methanone], the inhibition at 3 µM was > 95%.
With `Cc1c(-c2ccc(Cl)cc2)c(C(=O)N2CCOCC2)n(Cc2ccccc2)c1C(F)F` [SC-41, [1-Benzyl-3-(4-chlorophenyl)-5-(difluoro-methyl)-4-methyl-1H-pyrrol-2-yl]-morpholin-4-yl-methanone] the inhibition at 3 µM was > 95%.
With `Cc1c(-c2ccc(Cl)cc2)c(C(=O)N(C)CC(C)(C)C)n(Cc2ccccc2)c1C(F)F` [SC-42, 1-Benzyl-3-(4-chlorophenyl)-5-(difluoro-methyl)-N-(2,2-dimethyl-propyl)-N,4-dimethyl-1H-pyrrole-2-carboxylic acid amide] the inhibition at 3 µM was > 95%.
Compound `Cc1c(-c2ccc(Cl)cc2)c(C(=O)N2CC(F)(F)C2)n(-c2ccc(Cl)cc2)c1C(F)(F)F` [SC-44, [1,3-Bis(4-chlorophenyl)-4-methyl-5-(trifluoromethyl)-1H-pyrrol-2-yl]-(3,3-difluoro-azetidin-1-yl)-methanone] has an inhibition at 3 µM of 75 to 95%.
For `Cc1c(-c2ccc(Cl)cc2)c(C(=O)N(C)C2(CO)CC2)n(Cc2ccccc2)c1C(F)(F)F` [SC-48, 1-Benzyl-3-(4-chlorophenyl)-N-[1-(hydroxymethyl)-cyclopropyl]-N,4-dimethyl-5-(trifluoromethyl)-1H-pyrrole-2-carboxylic acid amide], the inhibition at 3 µM was > 95%.
For `Cc1c(-c2ccc(Cl)cc2)c(C(=O)N(C)C2(C(N)=O)CC2)n(Cc2ccccc2)c1C(F)(F)F` [SC-49, 1-Benzyl-N-(1-carbamoyl-cyclopropyl)-3-(4-chlorophenyl)-N,4-dimethyl-5-(trifluoromethyl)-1H-pyrrole-2-carboxylic acid amide], the inhibition at 3 µM was > 95%.
`Cc1c(-c2ccc(Cl)cc2)c(C(=O)N2CCOC(=O)C2)n(Cc2ccccc2)c1C(F)(F)F` [SC-50, 4-[1-Benzyl-3-(4-chlorophenyl)-4-methyl-5-(trifluoromethyl)-1H-pyrrole-2-carbonyl]-morpholin-2-one] showed an inhibition at 3 µM of 75 to 95%.
For `Cc1c(-c2ccc(Cl)cc2)c(C(=O)N2CCOCC2)n(CCOc2ccc(F)cc2)c1C(F)(F)F` [SC-51, [3-(4-Chlorophenyl)-1-[2-(4-fluoro-phenoxy)-ethyl]-4-methyl-5-(trifluoromethyl)-1H-pyrrol-2-yl]-morpholin-4-yl-methanone], the inhibition at 3 µM was > 95%.
With `CCOC(=O)C1(N(C)C(=O)c2c(-c3ccc(Cl)cc3)c(C)c(C(F)(F)F)n2Cc2ccccc2)CC1` [SC-52, 1[[1-Benzyl-3-(4-chlorophenyl)-4-methyl-5-(trifluoromethyl)-1H-pyrrole-2-carbonyl]-methyl-amino]-cyclopropane-1-carboxylic acid ethyl ester] the inhibition at 3 µM was > 95%.
`Cc1c(-c2ccc(Cl)cc2)c(C(=O)N(C)CC(C)(C)C)n(Cc2cccc(Cl)c2)c1C(F)(F)F` [SC-53, 3-(4-Chlorophenyl)-1-[(3-chlorophenyl)-methyl]-N-(2,2-dimethyl-propyl)-N,4-dimethyl-5-(trifluoromethyl)-1H-pyrrole-2-carboxylic acid amide] was tested, and the inhibition at 3 µM was 75 to 95%.
With `Cc1c(-c2ccc(Cl)cc2)c(C(=O)N(C)CC(C)(C)O)n(Cc2ccccc2)c1C(F)(F)F` [SC-54, 1-Benzyl-3-(4-chlorophenyl)-N-(2-hydroxy-2-methyl-propyl)-N,4-dimethyl-5-(trifluoromethyl)-1H-pyrrole-2-carboxylic acid amide] the inhibition at 3 µM was > 95%.
`Cc1c(-c2ccc(Cl)cc2)c(C(=O)N2CCNC(=O)C2)n(Cc2cccc(Cl)c2)c1C(F)(F)F` [SC-55, 4-[3-(4-Chlorophenyl)-1-[(3-chlorophenyl)-methyl]-4-methyl-5-(trifluoromethyl)-1H-pyrrole-2-carbonyl]-piperazin-2-one] was tested, and the inhibition at 3 µM was > 95%.
`Cc1c(-c2ccc(Cl)cc2)c(C(=O)N(C)CCS(C)(=O)=O)n(Cc2cccc(Cl)c2)c1C(F)(F)F` [SC-56, 3-(4-Chlorophenyl)-1-[(3-chlorophenyl)-methyl]-N,4-dimethyl-N-(2-methylsulfonyl-ethyl)-5-(trifluoromethyl)-1H-pyrrole-2-carboxylic acid amide] was tested, and the inhibition at 3 µM was > 95%.
For `Cc1c(-c2ccc(Cl)cc2)c(C(=O)N(C)CC(C)(C)O)n(Cc2cccc(Cl)c2)c1C(F)(F)F` [SC-57, 3-(4-Chlorophenyl)-1-[(3-chlorophenyl)-methyl]-N-(2-hydroxy-2-methyl-propyl)-N,4-dimethyl-5-(trifluoromethyl)-1H-pyrrole-2-carboxylic acid amide], the inhibition at 3 µM was > 95%.
`Cc1c(-c2ccc(Cl)cc2F)c(C(=O)N(C)CC(C)(C)O)n(Cc2ccccc2)c1C(F)(F)F` [SC-58, 1-Benzyl-3-(4-chloro-2-fluoro-phenyl)-N-(2-hydroxy-2-methyl-propyl)-N,4-dimethyl-5-(trifluoromethyl)-1H-pyrrole-2-carboxylic acid amide] was tested, and the inhibition at 3 µM was > 95%.
For `Cc1c(-c2ccc(Cl)cc2F)c(C(=O)N(C)CC(C)(C)C)n(Cc2ccccc2)c1C(F)(F)F` [SC-59, 1-Benzyl-3-(4-chloro-2-fluoro-phenyl)-N-(2,2-dimethyl-propyl)-N,4-dimethyl-5-(trifluoromethyl)-1H-pyrrole-2-carboxylic acid amide], the inhibition at 3 µM was > 95%.
With `Cc1c(-c2ccc(Cl)cc2)c(C(=O)N(C)CC2(C)COC2)n(Cc2ccccc2)c1C(F)(F)F` [SC-60, 1-Benzyl-3-(4-chlorophenyl)-N,4-dimethyl-N-[(3-methyl-oxetan-3-yl)-methyl]-5-(trifluoromethyl)-1H-pyrrole-2-carboxylic acid amide] the inhibition at 3 µM was > 95%.
For `Cc1c(-c2ccc(Cl)cc2F)c(C(=O)N2CCNC(=O)C2)n(Cc2ccccc2)c1C(F)(F)F` [SC-61, 4-[1-Benzyl-3-(4-chloro-2-fluoro-phenyl)-4-methyl-5-(trifluoromethyl)-1H-pyrrole-2-carbonyl]-piperazin-2-one], the inhibition at 3 µM was > 95%.
`Cc1c(-c2ccc(Cl)cc2F)c(C(=O)N2CCOCC2)n(Cc2ccccc2)c1C(F)(F)F` [SC-62, [1-Benzyl-3-(4-chloro-2-fluoro-phenyl)-4-methyl-5-(trifluoromethyl)-1H-pyrrol-2-yl]-morpholin-4-yl-methanone] was tested, and the inhibition at 3 µM was > 95%.
